From patent US20070110817A1, “Biological active blood serum obtained by electrostimulation” (Owen Holding Ltd., priority 2004, published 2007) come the findings set out here.

This test relates to rats. In words: Escape reaction latency after zytisin with or without serum. It is filed as in vivo, rat. The protocol:
During the formation and the long-term maintenance of information a significant role is attributed to H-cholino-ceptive mechanisms. 30 animals who were taught for five days how to dive under a “bell” were subdivided into three groups.
A physiological solution of zytisin (a H-cholino-ceptive antagonist of the brain) was injected with a dose of 1 mg/kg body weight into the peritoneal cavity 30 minutes prior to the test of the animals of the first group (ten rats).
Biologically active serum was administered in a dose of 100 mg/kg body weight to the animals of the second group (ten rats) and 30 minutes later a zytisin solution was administered with a dose of 1 mg/kg body weight.
The third animal group (control—ten rats) received a 1 ml injection of a physiological salt solution.
The complex behaviour of the animals was tested according to above-indicated method 48 hours after the injection of the indicated substances.

As for `O=c1cccc2n1C[C@@H]1CNC[C@H]2C1` [zytisin], the “slowing of the “escape reaction” in comparison to control animals” value (48 hours after zytisin 1 mg/kg) was found to be 3 fold. In addition, for the setting “after 48 h, zytisin 1 mg/kg, serum 100 mg/kg 30 minutes before zytisin, control 13.33 ± 0.58”, the “Latency period for the reaction of rats to the situation” value was 40.0 ± 14 s.
